From patent US20250346606A1, “CAMPTOTHECIN COMPOUND, PREPARATION METHOD THEREFOR, AND APPLICATION THEREOF” (SICHUAN KELUN-BIOTECH BIOPHARMACEUTICAL CO., LTD., priority 2021, published 2025)
Read-outs that look alike come from different tables or passages of the source.

Assays:
NCI-H358 cells = experiment: Inhibitory effect of compounds on NCI-H358 cell proliferation; assay type: cell-based, Human
Experimental: (1) Cell plating: First, tumor cells NCI-H358 were cultured in corresponding medium, then digested with trypsin, centrifuged, resuspended, and counted, and the cells were adjusted to an appropriate concentration for plating.
(§1) Co-incubation of the compound of the present disclosure and tumor cells: after the cells adhered to the wall, the medium was removed, and the diluted bioactive molecule (the compound of the present disclosure) was added to the wells of the above plate, and incubated for 72 h.
(§2) In vitro cell viability detection: After the incubation, 50 μL of Cell Counting-Lite™ 2.0 reagent (Vazyme/Novazyme) was added to each well, shaken and mixed well in the dark, reacted for 10 minutes, and then the detection was carried out with a microplate reader (manufacturer: BMG, Model: PHERAStar-FS) for reading. The background RLU was obtained by using cell-free medium (with Cell Counting-Lite™), and the vehicle RLU was obtained by using cell-containing medium (with Cell Counting-Lite™). Cell inhibition rate=1−(sample RLU−background RLU)/(solvent RLU−background RLU)×100%. According to the four-parameter model fitting curve, the half maximal inhibitory concentration (IC50) of the compound was calculated, and the detection results were shown in Table 10.

Jeko-1 cells = experiment: Inhibitory effect of compounds on Jeko-1 cell proliferation; assay type: cell-based, Human; conditions: read-out: IC50, inhibitory activity on Jeko-1 cell proliferation
Experimental: (1) Cell plating: First, tumor cells Jeko-1 were cultured in corresponding medium, then digested with trypsin, centrifuged, resuspended, and counted, and the cells were adjusted to an appropriate concentration for plating.
as §1
as §2, with “20.” for “10.”

NCI-N87 cells = experiment: Inhibitory effect of compounds on NCI-N87 cell proliferation; assay type: cell-based, Human
Experimental: (1) Cell plating: First, tumor cells NCI-N87 were cultured in corresponding medium, then digested with trypsin, centrifuged, resuspended, and counted, and the cells were adjusted to an appropriate concentration for plating.
as §1
as §2, with “12.” for “10.”

MDA-MB-453 cells = experiment: Inhibitory effect of compounds on MDA-MB-453 cell proliferation; assay type: cell-based; conditions: MDA-MB-453 human breast cancer cells, 72 h incubation, Cell Counting-Lite 2.0
Experimental: (1) Cell plating: First, tumor cells MDA-MB-453 were cultured in corresponding medium, then digested with trypsin, centrifuged, resuspended, and counted, and the cells were adjusted to an appropriate concentration for plating.
as §1
as §2, with “22.” for “10.”

HCC1806 cells = experiment: Inhibitory effect of compounds on HCC1806 cell proliferation; assay type: cell-based, Human
Experimental: (1) Cell plating: First, tumor cells HCC1806 were cultured in corresponding medium, then digested with trypsin, centrifuged, resuspended, and counted, and the cells were adjusted to an appropriate concentration for plating.
as §1
as §2, with “6.” for “10.”

SKOV-3 cells = experiment: Inhibitory effect of compounds on SKOV-3 cell proliferation; assay type: cell-based, Human; conditions: Homo sapiens, SK-OV-3, 72 h, read-out: IC50, inhibitory activity on SKOV-3 cell proliferation
Experimental: (1) Cell plating: First, tumor cells SKOV-3 were cultured in corresponding medium, then digested with trypsin, centrifuged, resuspended, and counted, and the cells were adjusted to an appropriate concentration for plating.
as §1
as §2, with “8.” for “10.”

HT29 cells = experiment: Inhibitory effect of compounds on HT29 cell proliferation; assay type: cell-based, Human; conditions: read-out: IC50, inhibitory activity on HT29 cell proliferation
Experimental: (1) Cell plating: First, tumor cells HT29 were cultured in corresponding medium, then digested with trypsin, centrifuged, resuspended, and counted, and the cells were adjusted to an appropriate concentration for plating.
as §1
as §2, with “2.” for “10.”

[1] = NCI-H358 human non-small cell lung cancer cells, 72 h incubation, Cell Counting-Lite 2.0, read-out: IC50, inhibitory activity on NCI-H358 cell proliferation
[2] = Jeko-1 human mantle cell lymphoma cells, 72 h incubation, Cell Counting-Lite 2.0
[3] = NCI-N87 human gastric cancer cells, 72 h incubation, Cell Counting-Lite 2.0, read-out: IC50, inhibitory activity on NCI-N87 cell proliferation
[4] = HCC1806 human breast squamous carcinoma cells, 72 h incubation, Cell Counting-Lite 2.0; read-out: IC50, inhibitory activity on HCC1806 cell proliferation
[5] = read-out: IC50, inhibitory activity on NCI-H358 cell proliferation, NCI-H358 human non-small cell lung cancer cells, 72 h incubation, Cell Counting-Lite 2.0
[6] = read-out: IC50, inhibitory activity on HCC1806 cell proliferation; HCC1806 human breast squamous carcinoma cells, 72 h incubation, Cell Counting-Lite 2.0
[7] = read-out: IC50, inhibitory activity on NCI-N87 cell proliferation, NCI-N87 human gastric cancer cells, 72 h incubation, Cell Counting-Lite 2.0

SMILES	IC50 (NCI-H358 cells; [1])	IC50 (NCI-N87 cells; [3])	IC50 (MDA-MB-453 cells)	IC50 (HCC1806 cells; [4])	also measured
C=C[C@H](O)C(=O)N[C@H]1CCc2c(C)c(F)cc3nc4c(c1c23)Cn1c-4cc2c(c1=O)COC(=O)[C@]2(O)CC [Example 2 (1-7-A)]	11.4 nM	2.7 nM	–	–	IC50 (Jeko-1 cells; [2]): 0.15 nM
C=C[C@@H](O)C(=O)N[C@H]1CCc2c(C)c(F)cc3nc4c(c1c23)Cn1c-4cc2c(c1=O)COC(=O)[C@]2(O)CC [Example 2 (1-7-B)]	51.5 nM	5.48 nM	–	–	IC50 (Jeko-1 cells; [2]): 0.66 nM
CC[C@@]1(O)C(=O)OCc2c1cc1n(c2=O)Cc2c-1nc1cc(F)c(C3CC3)c3c1c2[C@H](NC(=O)CO)CC3 [Example 19 (5-22-B), N-((1R,9S)-4-cyclopropyl-9-ethyl-5-fluoro-9-hydroxy-10,13-dioxo-1,2,3,9,10,12,13,15-tetrahydrobenzo[de]pyrano[3′,4′:6,7]indolizino[1,2-b]quinolin-1-yl)-2-hydroxyacetamide]	61.4 nM	5.51 nM	5.67 nM	3.71 nM	–
CC[C@@]1(O)C(=O)OCc2c1cc1n(c2=O)Cc2c-1nc1cc(F)c(Cl)c3c1c2C(NC(=O)C(O)C1CC1)CC3 (single isomer, unassigned) [Example 16 (3-12-C)]	–	–	5.52 nM	–	IC50 (NCI-H358 cells; [5]): 28.3 nM; IC50 (HCC1806 cells; [6]): 1.91 nM; IC50 (NCI-N87 cells; [7]): 3.99 nM
CC[C@@]1(O)C(=O)OCc2c1cc1n(c2=O)Cc2c-1nc1cc3c(cc1c2CCNC1CC1)OCO3 [Example 21 (4-14), (S)-14-(2-(Cyclopropylamino)ethyl)-7-ethyl-7-hydroxy-7H-[1,3]dioxolano[4,5-g]pyrano[3′,4′:6,7]indolizino[1,2-b]quinolin-8,11 (10H,13H)-dione]	–	–	–	–	IC50 (NCI-H358 cells; Homo sapiens, NCI-H358, 72 h, read-out: IC50, inhibitory activity on NCI-H358 cell proliferation, NCI-H358 human non-small cell lung cancer cells, 72 h incubation, Cell Counting-Lite 2.0): 12 nM; IC50 (Jeko-1 cells; Homo sapiens, JeKo-1, 72 h): 0.34 nM; IC50 (SKOV-3 cells): 2.16 nM; IC50 (HT29 cells; Homo sapiens, HT-29, 72 h): 0.56 nM
CC[C@@]1(O)C(=O)OCc2c1cc1n(c2=O)Cc2c-1nc1cc(F)c(C)c3c1c2[C@@H](CN)CC3 (single isomer, unassigned) [Example 13 (5-7-A)]	–	–	–	–	IC50 (Jeko-1 cells; Homo sapiens, JeKo-1, 72 h): 0.16 nM; IC50 (HT29 cells; Homo sapiens, HT-29, 72 h): 3.13 nM; IC50 (NCI-N87 cells; Homo sapiens, NCI-N87, 72 h, read-out: IC50, inhibitory activity on NCI-N87 cell proliferation, NCI-N87 human gastric cancer cells, 72 h incubation, Cell Counting-Lite 2.0): 6.03 nM
CC[C@@]1(O)C(=O)OCc2c1cc1n(c2=O)Cc2c-1nc1cc(F)c(Cl)c3c1c2[C@H](NC(=O)CO)CC3 [Example 9 (3-4-B), N-((1R,9S)-4-Chloro-9-ethyl-5-fluoro-9-hydroxy-10,13-dioxo-2,3,9,10,13,15-hexahydro-1H, 12H-benzo[de]pyrano[3′,4:6,7]indolizino[1,2-b]quinolin-1-yl)-2-hydroxyacetamide]	–	6.51 nM	–	–	IC50 (Jeko-1 cells; [2]): 0.15 nM; IC50 (HT29 cells; HT29 human colon cancer cells, 72 h incubation, Cell Counting-Lite 2.0): 4.98 nM
CC[C@@]1(O)C(=O)OCc2c1cc1n(c2=O)Cc2c-1nc1cc(F)c(C3CC3)c3c1c2[C@@H](NC(=O)CO)CC3 [Example 19 (5-22-A), N-((1S,9S)-4-cyclopropyl-9-ethyl-5-fluoro-9-hydroxy-10,13-dioxo-1,2,3,9,10,12,13,15-tetrahydrobenzo[de]pyrano[3′,4′:6,7]indolizino[1,2-b]quinolin-1-yl)-2-hydroxyacetamide]	29.9 nM	3.35 nM	7.34 nM	2.57 nM	–
CC[C@@]1(O)C(=O)OCc2c1cc1n(c2=O)Cc2c-1nc1cc(F)c(Cl)c3c1c2[C@H](NC(=O)C1(O)CC1)CC3 [Example 18 (3-17-B)]	37.3 nM	4.19 nM	6.16 nM	2.26 nM	–
CC[C@@]1(O)C(=O)OCc2c1cc1n(c2=O)Cc2c-1nc1cc(F)c(Cl)c3c1c2[C@@H](NC(=O)C1(O)CC1)CC3 [Example 18 (3-17-A)]	13.3 nM	3.01 nM	3.32 nM	1.7 nM	–
CC[C@@]1(O)C(=O)OCc2c1cc1n(c2=O)Cc2c-1nc1cc(F)c(Cl)c3c1c2C(NC(=O)C(O)C1CC1)CC3 (single isomer, unassigned) [Example 16 (3-12-D)]	–	–	3.98 nM	–	IC50 (NCI-H358 cells; [5]): 20.8 nM; IC50 (HCC1806 cells; [6]): 1.53 nM; IC50 (NCI-N87 cells; [7]): 3.03 nM
